Blank lines part the entries; values can stand above or below the compound they belong to.
Assays:
[1] = Stability test (40° C., 75% R.H., 3 months); assay type: physicochemical; settings: for Storage stability: 3 months at 40° C. under a relative humidity of 75%
Experimental: Samples were stored under shade for 3 months in a constant temperature constant moisture vessel of 40° C. and 75% R.H. The purity of each sample before storage and after storage was measured using HPLC, and change of crystal form was measured by powder X-ray diffraction. In addition, as a comparative example, crystals of the chloride were stored for 3 months under the same conditions, and amount of an impurity a (a compound in which the imidazolium ring was ring-opened) was measured. [table]

[2] = Evaluation of hygroscopic property (storage in humidity-adjusted desiccators); assay type: physicochemical; settings: for HPLC purity change / degradation due to storage: 7 days of storage, ca. 0 to 93% R.H.; for Hygroscopic property: conclusion from storage at ca. 0 to 93% R.H.
Experimental: About 0.5 g of each of the α- form Crystals and β- form Crystals of the bromide obtained in Example 2 was put into a weighing bottle of known mass and, after precisely calculating its mass, preserved under the following storage condition at 25° C. to measure changes in the mass.
Storage condition: A desiccator adjusted to a humidity of about 0% R.H. (silica gel), 33% R.H. (saturated MgCl2.6H2O aqueous solution), 51% R.H. (saturated Ca(NO3)2 aqueous solution), 75% R.H. (saturated NaCl aqueous solution), or 93% R.H. (saturated KNO3 aqueous solution).
i) Moisture absorption (dehydrated amount): By taking out each sample after 7 days of the storage, the weight change was precisely measured and recorded to calculate amount of the absorbed moisture.
ii) Appearance verification: Appearance of the powder was verified with the naked eye and using a magnifying lens.
iii) Powder X-ray diffraction measurement: Powder X-ray diffraction patterns of samples before storage and after completion of the storage period were recorded by a powder X-ray diffraction device.
iv) HPLC purity: Detection of degraded products in the samples before storage and after completion of the storage period was carried out using HPLC to measure purity.
(HPLC conditions) Mobile phase: 0.1% trifluoroacetic acid aqueous solution/acetonitrile=9:2, column: TSKgel ODS 80TsQA, 4.6×150 mm, particle diameter 5 μm (mfd. by Tosoh), flow rate: 1 ml/min, column temperature: 40° C., detection: UV 260 nm

[3] = Water absorption/desorption behavior (moisture equilibrium measuring device SGA-X100); assay type: physicochemical
Experimental: Water absorption/desorption behavior of the bromide (β- form Crystal) and the chloride obtained in Reference Example as a comparative compound was measured using a moisture equilibrium measuring device SGA-X100 (VTI) under conditions of temperature: 25° C., measuring range: relative humidity of from 5 to 95%, and measuring interval: 5%.

[4] = cf. page 22 of WO 01/60803; cited from earlier work
[5] = tested on: tumor; settings: cf. page 22 of WO 01/60803; cited from earlier work
[6] = after storage, 3 months, 40° C., 75% R.H., under shade
[7] = 93% R.H. storage, 25° C., 7 days
[8] = other conditions (ca. 0 to 75% R.H.), 25° C., 7 days
[9] = all conditions (ca. 0 to 93% R.H.), 25° C., 7 days

- Storage stability ([1]; listed as α- form Crystals): stable
- HPLC purity (%) [1, 6]: 99.92%
- Powder X-ray diffraction pattern [1, 6]: β-form
- HPLC purity (%) ([1]; before storage): 99.91%
- Powder X-ray diffraction pattern ([1]; before storage): α-form
- Weight change (%) ([2]; 33% R.H., 25° C., 7 days, listed as α-form Crystals): −0.02%
- HPLC purity (%) ([2]; 33% R.H., 25° C., after 7 days of storage, listed as α-form Crystals): 99.89%
- Weight change (%) ([2]; 51% R.H., 25° C., 7 days, listed as α-form Crystals): −0.04%
- HPLC purity (%) ([2]; 51% R.H., 25° C., after 7 days of storage, listed as α-form Crystals): 99.89%
- Weight change (%) ([2]; 75% R.H., 25° C., 7 days, listed as α-form Crystals): 0.13%
- HPLC purity (%) ([2]; 75% R.H., 25° C., after 7 days of storage, listed as α-form Crystals): 99.88%
- Appearance verification [2, 7]: change from reddish yellow to yellow
- Powder X-ray diffraction pattern after storage [2, 7]: transitioned to β- form Crystals
- Weight loss [2, 7]: About 1%
- Weight change (%) ([2]; 93% R.H., 25° C., 7 days, listed as α-form Crystals): −0.94%
- HPLC purity (%) ([2]; 93% R.H., 25° C., after 7 days of storage, listed as α-form Crystals): 99.89%
- HPLC purity change / degradation due to storage ([2]; 25° C.): the purity was not decreased
- HPLC purity (%) ([2]; before storage, listed as α-form Crystals): 99.93%
- Weight change (%) ([2]; ca. 0% R.H. (silica gel), 25° C., 7 days, listed as α-form Crystals): −0.10%
- HPLC purity (%) ([2]; ca. 0% R.H., 25° C., after 7 days of storage, listed as α-form Crystals): 99.72%
- Hygroscopic property ([2]; 25° C.): no hygroscopic property
- Appearance verification [2, 8]: No changes were found
- Powder X-ray diffraction pattern after storage [2, 8]: No changes were found
SMILES: COCCn1c2c([n+](Cc3cnccn3)c1C)C(=O)c1ccccc1C2=O.[Br-] [α-form Crystal, 1-(2-methoxyethyl)-2-methyl-4,9-dioxo-3-(pyrazin-2-ylmethyl)-4,9-dihydro-1H-naphtho[2,3-d]imidazol-3-ium bromide]
- Storage stability [1]: degradation due to the storage was not observed

- Storage stability [1]: very stable physically and chemically
- Storage stability ([1]; listed as β- form Crystals): stable
- HPLC purity (%) [1, 6]: 99.71%
- Powder X-ray diffraction pattern [1, 6]: β-form
- HPLC purity (%) ([1]; before storage): 99.71%
- Powder X-ray diffraction pattern ([1]; before storage): β-form
- Hygroscopic property ([3]; 25° C., humidity range of from 5 to 95%): not found
- Weight change (%) ([2]; 33% R.H., 25° C., 7 days, listed as β-form Crystals): 0.02%
- HPLC purity (%) ([2]; 33% R.H., 25° C., after 7 days of storage, listed as β-form Crystals): 99.73%
- Weight change (%) ([2]; 51% R.H., 25° C., 7 days, listed as β-form Crystals): 0.04%
- HPLC purity (%) ([2]; 51% R.H., 25° C., after 7 days of storage, listed as β-form Crystals): 99.72%
- Weight change (%) ([2]; 75% R.H., 25° C., 7 days, listed as β-form Crystals): 0.06%
- HPLC purity (%) ([2]; 75% R.H., 25° C., after 7 days of storage, listed as β-form Crystals): 99.71%
- Weight change (%) ([2]; 93% R.H., 25° C., 7 days, listed as β-form Crystals): 0.08%
- HPLC purity (%) ([2]; 93% R.H., 25° C., after 7 days of storage, listed as β-form Crystals): 99.71%
- HPLC purity change / degradation due to storage ([2]; 25° C.): the purity was not decreased
- Appearance verification [2, 9]: No changes were found
- Powder X-ray diffraction pattern after storage [2, 9]: did not change
- Weight change ([2]; all of the moisture adjustment conditions, 25° C., 7 days): Significant weight change was not found
- HPLC purity (%) ([2]; before storage, listed as β-form Crystals): 99.72%
- Weight change (%) ([2]; ca. 0% R.H. (silica gel), 25° C., 7 days, listed as β-form Crystals): 0.01%
- HPLC purity (%) ([2]; ca. 0% R.H., 25° C., after 7 days of storage, listed as β-form Crystals): 99.73%
- Hygroscopic property ([2]; 25° C.): no hygroscopic property
SMILES: COCCn1c2c([n+](Cc3cnccn3)c1C)C(=O)c1ccccc1C2=O.[Br-] [β-form Crystal, 1-(2-methoxyethyl)-2-methyl-4,9-dioxo-3-(pyrazin-2-ylmethyl)-4,9-dihydro-1H-naphtho[2,3-d]imidazol-3-ium bromide]

- Storage stability [1]: low
- Impurity a (%) (imidazolium ring-opened compound) [1, 6]: 2.45%
- Impurity a (%) (imidazolium ring-opened compound) ([1]; before storage): 0.64%
- Weight gain on forming monohydrate ([3]; 25° C., 65% R.H. to 80% R.H.): 4.3%
- Relative humidity causing deliquescence ([3]; 25° C., absorption): ≥ 85 % R.H.
- Relative humidity below which hydrate returned to anhydride ([3]; 25° C., at the time of drying, hydration state stable up to 25% R.H.): < 25 % R.H.
- Heating temperature returning hydrate to anhydride ([3]; slight heating): ≥ 25 °C
SMILES: COCCn1c2c([n+](Cc3cnccn3)c1C)C(=O)c1ccccc1C2=O [chloride, 1-(2-methoxyethyl)-2-methyl-4,9-dioxo-3-(pyrazin-2-ylmethyl)-4,9-dihydro-1H-naphtho[2,3-d]imidazol-3-ium chloride]
- toxicity [4]: low
- in vivo tumor growth inhibitory activity [5]: good

- Hygroscopic property ([2]; 25° C.): no hygroscopic property
SMILES: COCCn1c2c([n+](Cc3cnccn3)c1C)C(=O)c1ccccc1C2=O.[Br-] [bromide, 1-(2-methoxyethyl)-2-methyl-4,9-dioxo-3-(pyrazin-2-ylmethyl)-4,9-dihydro-1H-naphtho[2,3-d]imidazol-3-ium bromide]
